Results from BindingDB's records for doi:10.1016/s0960-894x(98)00091-2 (Eli Lilly, 1999).

Target: NMDA receptor (Rattus norvegicus)
Test: Binding affinity against Ionotropic glutamate receptor using [3H]- CGS-19755 displacement from rat forebrain preparations

IC50: 13.2 µM
Structure (SMILES): N[C@@H](C[C@H](CCC(c1ccccc1)c1ccccc1)C(=O)O)C(=O)O [(2S,4S)-2-Amino-4-(3,3-diphenyl-propyl)-pentanedioic acid]
